The source of these data is BindingDB's records for PubMed 34705450 (Astex Pharmaceuticals, 2021).

Structures are written as SMILES.

Sequence of Kelch-like ECH-associated protein 1 (Q14145 whole entry): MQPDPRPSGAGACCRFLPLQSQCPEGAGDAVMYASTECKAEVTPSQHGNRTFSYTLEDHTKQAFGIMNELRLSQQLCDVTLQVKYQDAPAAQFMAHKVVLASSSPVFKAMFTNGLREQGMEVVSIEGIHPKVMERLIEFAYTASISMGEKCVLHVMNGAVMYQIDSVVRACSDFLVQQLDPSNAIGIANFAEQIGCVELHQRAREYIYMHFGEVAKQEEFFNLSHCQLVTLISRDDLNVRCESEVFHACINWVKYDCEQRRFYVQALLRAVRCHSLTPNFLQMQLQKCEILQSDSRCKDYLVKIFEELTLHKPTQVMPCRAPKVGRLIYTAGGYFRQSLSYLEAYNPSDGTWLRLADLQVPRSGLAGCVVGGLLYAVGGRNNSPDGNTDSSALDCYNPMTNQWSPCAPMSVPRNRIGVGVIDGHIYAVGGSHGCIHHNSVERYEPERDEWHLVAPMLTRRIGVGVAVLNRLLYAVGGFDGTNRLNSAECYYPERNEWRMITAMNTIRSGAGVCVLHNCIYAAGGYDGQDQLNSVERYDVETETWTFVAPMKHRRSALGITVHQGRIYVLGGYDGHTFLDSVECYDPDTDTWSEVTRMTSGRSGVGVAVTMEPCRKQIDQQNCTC

One assay addresses Kelch-like ECH-associated protein 1 (Homo sapiens, UniProt Q14145).
`CCCC1CCCCN1C(=O)c1cccc(-c2cccc(-n3ncc(C(=O)O)c3C3CC3c3ccccn3)c2)c1` (stereo unspecified) gave an IC50 of 42 nM.

The target of another assay is T1, Nuclear factor erythroid 2-related factor 2 (Homo sapiens, UniProt Q16236).
T1 sequence (Q16236 whole entry): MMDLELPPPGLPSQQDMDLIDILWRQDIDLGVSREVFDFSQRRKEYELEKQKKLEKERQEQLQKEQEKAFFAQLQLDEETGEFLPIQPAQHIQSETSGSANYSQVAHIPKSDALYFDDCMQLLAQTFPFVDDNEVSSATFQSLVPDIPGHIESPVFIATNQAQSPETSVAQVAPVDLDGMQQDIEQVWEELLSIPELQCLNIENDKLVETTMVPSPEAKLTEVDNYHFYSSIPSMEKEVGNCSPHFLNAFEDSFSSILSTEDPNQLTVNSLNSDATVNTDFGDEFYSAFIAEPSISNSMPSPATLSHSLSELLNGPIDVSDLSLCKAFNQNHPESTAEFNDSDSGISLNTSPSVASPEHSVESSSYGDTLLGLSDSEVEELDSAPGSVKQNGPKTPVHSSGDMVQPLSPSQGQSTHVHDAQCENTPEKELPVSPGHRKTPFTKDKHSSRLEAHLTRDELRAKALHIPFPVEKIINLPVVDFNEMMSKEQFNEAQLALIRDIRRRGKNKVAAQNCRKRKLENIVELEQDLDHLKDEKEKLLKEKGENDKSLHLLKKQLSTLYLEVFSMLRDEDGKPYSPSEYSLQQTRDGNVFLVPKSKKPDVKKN
Kind of assay: Induction of Nrf2 in human BEAS-2B cells assessed as increase in NQO1 protein level incubated for 48 hrs by MTT assay. For orientation: Tetrazolium dyes change colour on reduction, which living cells bring about.
Regarding `CN(C)C(=O)c1cccc(-c2cccc(-n3ncc(C(=O)O)c3C3CC3)c2)c1`, the concentration for a half-maximal effect (EC50) was determined as 1400 nM.
For the compound `CCCCC1CCCN1C(=O)C1CCCC(c2cccc(-n3ncc(C(=O)O)c3C3CC3)c2)C1` (stereo unspecified), the concentration giving a half-maximal response (EC50) is 4400 nM.
Turning to `O=C(O)c1cnn(-c2cccc(-c3cccc(C(=O)N4CCCC5(CCCC5)C4)c3F)c2)c1C1CC1`, the EC50 worked out at 3700 nM.
Regarding `CCCC1COCCN1C(=O)c1cccc(-c2cccc(-n3ncc(C(=O)O)c3C3CC3)c2)c1F` (stereo unspecified), the EC50 stood at 2500 nM.
For `CN(CC1CC1)C(=O)c1cccc(-c2cccc(-n3ncc(C(=O)O)c3C3CC3)c2)c1F`, the concentration giving a half-maximal response (EC50) was determined as 2200 nM.
On to `CCCC1CCCCN1C(=O)c1cccc(-c2cccc(-n3ncc(C(=O)O)c3C3CC3c3cccnc3)c2)c1` (stereo unspecified), for which the EC50 came to 3200 nM.
Take `O=C(O)c1cnn(-c2cccc(-c3cccc(C(=O)N4CCCCC4)c3F)c2)c1C1CC1`: the EC50 amounted to 2300 nM.
Same read-out and setting: the value for `CN(C)C(=O)c1cccc(-c2cccc(-n3ncc(C(=O)O)c3C3CC3)c2)c1F` was 1300 nM.
Still for that read-out and setting: to `CCCC1CCCCN1C(=O)C1CCCC(c2cccc(-n3ncc(C(=O)O)c3C3CC3)c2)C1` (stereo unspecified) belongs 4100 nM; to `CCCC[C@@H]1CCCN1C(=O)[C@H]1CCC[C@@H](c2cccc(-n3ncc(C(=O)O)c3C3CC3)c2)C1`, 4300 nM; to `CCC[C@@H]1CCCCN1C(=O)c1cccc(-c2cccc(-n3ncc(C(=O)O)c3[C@H]3C[C@@H]3c3cn(C)nn3)c2)c1`, 43 nM.
The same measure, in the same setting: to `CCCC1CCCCN1C(=O)c1cccc(-c2cccc(-n3ncc(C(=O)O)c3C3CC3c3cccnn3)c2)c1` (stereo unspecified) belongs 2800 nM; to `CN(C)C(=O)[C@H]1CCC[C@@H](c2cccc(-n3ncc(C(=O)O)c3C3CC3)c2)C1`, 1700 nM.
For `CCCC1CCCCN1C(=O)c1cccc(-c2cccc(-n3ncc(C(=O)O)c3C3CC3c3cn(C)nn3)c2)c1` (stereo unspecified), the EC50 stood at 120 nM.
The same measure, in the same setting: the value for `CCCC1CCCCN1C(=O)c1cccc(-c2cccc(-n3ncc(C(=O)O)c3C3CC3c3ccccn3)c2)c1` (stereo unspecified) was 3800 nM; that for `O=C(O)c1cnn(-c2cccc([C@@H]3CCC[C@H](C(=O)N4CCCCC4)C3)c2)c1C1CC1` was 2700 nM.
Consider `CCC[C@@H]1CCCCN1C(=O)c1cccc(-c2cccc(-n3ncc(C(=O)O)c3[C@@H]3C[C@H]3c3cn(C)nn3)c2)c1`, for which the EC50 was above 5000 nM.
Still for that read-out and setting: the value for `CCC[C@@H]1CCCCN1C(=O)c1cccc(-c2cccc(-n3ncc(C(=O)O)c3C3CC3)c2)c1F` was 3500 nM; that for `O=C(O)c1cnn(-c2cccc(-c3cccc(C(=O)N(CC4CC4)CC4CC4)c3F)c2)c1C1CC1` was 3500 nM.
`CCC[C@H]1CCCCN1C(=O)c1cccc(-c2cccc(-n3ncc(C(=O)O)c3C3CC3)c2)c1F`: the EC50 worked out at 3500 nM.

A word on the IC50: it is the point on the concentration scale where inhibition reaches its midpoint. Low readings indicate greater potency in that assay, high ones weaker potency in that assay. As a reminder, the EC50 is the concentration giving half of the maximal effect.
